Measurements as given in patent publication US20150105252A1, “SUBSTITUTED PYRAZOLES AS HERBICIDES” (E I DU PONT DE NEMOURS AND COMPANY, priority 2013, published 2015).

Assays:
nutsedge, yellow [1] = experiment: Test C postemergence; format: in vivo, Cyperus esculentus; conditions: for Plant response rating (scale of 0 to 100 where 0 is no effect and 100 is complete control), Nutsedge, Yellow: Postemergence, 31 g ai/ha, visually evaluated after 13 to 15 days; for Nutsedge, Yellow plant response rating / Plant response rating, Nutsedge, Yellow: postemergence; for Nutsedge, Yellow plant response rating: 62 g ai/ha, scale 0 to 100
Outline: (§1)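 Pre- and postemergence greenhouse screen; vehicle was a non-phytotoxic solvent mix with surfactant. Preemergence: treatment applied right after sowing into loam and sand. Postemergence: treated at 1–4 leaves. Visual rating at 13–15 days, 100 = complete control.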

johnsongrass = experiment: Test C postemergence; format: in vivo, Sorghum halepense; conditions: for Plant response rating (scale of 0 to 100 where 0 is no effect and 100 is complete control), Johnsongrass: Postemergence, 31 g ai/ha, visually evaluated after 13 to 15 days; for Johnsongrass plant response rating / Plant response rating, Johnsongrass: postemergence; for Johnsongrass plant response rating: 62 g ai/ha, scale 0 to 100
Outline: as §1

morningglory = experiment: Test C postemergence; format: in vivo, Ipomoea coccinea; conditions: for Plant response rating (scale of 0 to 100 where 0 is no effect and 100 is complete control), Morningglory: Postemergence, 31 g ai/ha, visually evaluated after 13 to 15 days; for Morningglory plant response rating / Plant response rating, Morningglory: postemergence; for Morningglory plant response rating: 62 g ai/ha, scale 0 to 100
Outline: as §1

ryegrass, Italian = experiment: Test C postemergence; format: in vivo, Lolium multiflorum
Outline: as §1

nutsedge, yellow [2] = experiment: Test C preemergence; format: in vivo, Cyperus esculentus
Outline: as §1

barnyardgrass = experiment: Test B flood; format: in vivo, Echinochloa crus-galli; conditions: 250 g ai/ha, visual rating on 0 to 100 scale (0 no effect, 100 complete control), 13 to 15 days
Outline: (§2)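 Visual ratings (0 = no effect, 100 = complete control) versus untreated controls were taken 13–15 days after treatment of greenhouse plants. Treatment was added to paddy water held at 3 cm depth on 2-leaf-stage seedlings.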

foxtail, giant = experiment: Test C postemergence; format: in vivo, Setaria faberii; conditions: for Plant response rating (scale of 0 to 100 where 0 is no effect and 100 is complete control), Foxtail, Giant: Postemergence, 31 g ai/ha, visually evaluated after 13 to 15 days; for Foxtail, Giant plant response rating / Plant response rating, Foxtail, Giant: postemergence; for Foxtail, Giant plant response rating: 62 g ai/ha, scale 0 to 100
Outline: as §1

pigweed = experiment: Test C postemergence; format: in vivo, Amaranthus retroflexus; conditions: for Pigweed plant response rating / Plant response rating, Pigweed: postemergence; for Pigweed plant response rating: 62 g ai/ha, scale 0 to 100
Outline: as §1

blackgrass = experiment: Test C preemergence; format: in vivo, Alopecurus myosuroides
Outline: as §1

wheat = experiment: Test C preemergence; format: in vivo, Triticum aestivum
Outline: as §1

oat, wild = experiment: Test C postemergence; format: in vivo, Avena fatua; conditions: for Plant response rating (scale of 0 to 100 where 0 is no effect and 100 is complete control), Oat, Wild: Postemergence, 31 g ai/ha, visually evaluated after 13 to 15 days; for Oat, Wild plant response rating / Plant response rating, Oat, Wild: postemergence; for Oat, Wild plant response rating: 62 g ai/ha, scale 0 to 100
Outline: as §1

rice = experiment: Test B flood; format: in vivo, Oryza sativa; conditions: 250 g ai/ha, visual rating on 0 to 100 scale (0 no effect, 100 complete control), 13 to 15 days
Outline: as §2

lambsquarters = experiment: Test C preemergence; format: in vivo, Chenopodium album
Outline: as §1

[3] = 250 g ai/ha, scale 0 to 100 (0 no effect, 100 complete control)
[4] = 125 g ai/ha, scale 0 to 100, 0 no effect, 100 complete control
[5] = Postemergence, 31 g ai/ha, visually evaluated after 13 to 15 days
[6] = postemergence, 250 g ai/ha, scale 0 to 100 (0 no effect, 100 complete control)
[7] = postemergence, 125 g ai/ha, scale 0 to 100, 0 no effect, 100 complete control
[8] = preemergence, 31 g ai/ha, visual rating, scale 0 to 100 (0 no effect, 100 complete control), 13 to 15 days
[9] = preemergence, 62 g ai/ha, scale 0 to 100 (0 no effect, 100 complete control), 13 to 15 days
[10] = preemergence, 125 g ai/ha, scale 0 to 100, 0 is no effect, 100 is complete control
[11] = preemergence, 125 g ai/ha, 13 to 15 days, scale 0 to 100, 0 = no effect, 100 = complete control
[12] = preemergence, 250 g ai/ha, scale 0 to 100, 0 is no effect, 100 is complete control

CCc1cc(C(=O)NOC(C)C)nn1Cc1ccnc(OC(F)F)c1 [Compound 126]
Plant response rating (scale of 0 to 100 where 0 is no effect and 100 is complete control), Nutsedge, Yellow (nutsedge, yellow [1]): 5
Nutsedge, Yellow plant response rating (nutsedge, yellow [1]): 5
Plant response rating, Nutsedge, Yellow (nutsedge, yellow [1]; [3]): 15
Plant response rating, Nutsedge, Yellow (nutsedge, yellow [1]; [4]): 5
Plant response rating (scale of 0 to 100 where 0 is no effect and 100 is complete control), Johnsongrass (johnsongrass): 5
Johnsongrass plant response rating (johnsongrass): 10
Plant response rating, Johnsongrass (johnsongrass; [3]): 25
Plant response rating, Johnsongrass (johnsongrass; [4]): 20
Plant response rating (scale of 0 to 100 where 0 is no effect and 100 is complete control), Morningglory (morningglory): 40
Morningglory plant response rating (morningglory): 60
Plant response rating, Morningglory (morningglory; [3]): 80
Plant response rating, Morningglory (morningglory; [4]): 80
Plant response rating (scale of 0 to 100 where 0 is no effect and 100 is complete control), Ryegrass, Italian (ryegrass, Italian; [5]): 5
Ryegrass, Italian plant response rating (ryegrass, Italian; postemergence, 62 g ai/ha, scale 0 to 100): 5
Plant response rating, Ryegrass, Italian (ryegrass, Italian; [6]): 15
Plant response rating, Ryegrass, Italian (ryegrass, Italian; [7]): 10
Plant response rating (scale of 0 to 100), Nutsedge, Yellow (nutsedge, yellow [2]; Preemergence, 250 g ai/ha): 90
Nutsedge, Yellow plant response rating (nutsedge, yellow [2]; [8]): 25
Nutsedge, Yellow plant response rating (nutsedge, yellow [2]; [9]): 45
Nutsedge, Yellow plant response rating (nutsedge, yellow [2]; [10]): 75
Plant response rating, Barnyardgrass (barnyardgrass): 40
Plant response rating (scale of 0 to 100 where 0 is no effect and 100 is complete control), Foxtail, Giant (foxtail, giant): 10
Foxtail, Giant plant response rating (foxtail, giant): 20
Plant response rating, Foxtail, Giant (foxtail, giant; [3]): 60
Plant response rating, Foxtail, Giant (foxtail, giant; [4]): 20
Plant response rating (scale of 0 to 100 where 0 is no effect and 100 is complete control), Pigweed (pigweed; [5]): 25
Pigweed plant response rating (pigweed): 50
Plant response rating, Pigweed (pigweed; [3]): 65
Plant response rating, Pigweed (pigweed; [4]): 40
Plant response rating (scale of 0 to 100), Blackgrass (blackgrass; Preemergence, 250 g ai/ha): 90
Blackgrass plant response rating (blackgrass; [8]): 55
Blackgrass plant response rating (blackgrass; [9]): 60
Blackgrass plant response rating (blackgrass; [10]): 90
Plant response rating (scale of 0 to 100), Wheat (wheat; Preemergence, 250 g ai/ha): 90
Wheat plant response rating (wheat; [8]): 45
Wheat plant response rating (wheat; [9]): 80
Wheat plant response rating (wheat; [10]): 90
Plant response rating (scale of 0 to 100 where 0 is no effect and 100 is complete control), Oat, Wild (oat, wild): 35
Oat, Wild plant response rating (oat, wild): 15
Plant response rating, Oat, Wild (oat, wild; [3]): 50
Plant response rating, Oat, Wild (oat, wild; [4]): 20
Plant response rating, Rice (rice): 20
Plant response rating (scale of 0 to 100), Lambsquarters (lambsquarters; Preemergence, 250 g ai/ha): 100
Lambsquarters plant response rating (lambsquarters; [8]): 85
Lambsquarters plant response rating (lambsquarters; [9]): 98
Lambsquarters plant response rating (lambsquarters; [10]): 100

CCCc1cc(C(=O)NC(C)C)nn1Cc1ccnc(C(F)(F)F)c1 [Compound 186]
Plant response rating (scale of 0 to 100 where 0 is no effect and 100 is complete control), Nutsedge, Yellow (nutsedge, yellow [1]): 5
Nutsedge, Yellow plant response rating (nutsedge, yellow [1]): 5
Plant response rating, Nutsedge, Yellow (nutsedge, yellow [1]; [3]): 15
Plant response rating, Nutsedge, Yellow (nutsedge, yellow [1]; [4]): 5
Plant response rating (scale of 0 to 100 where 0 is no effect and 100 is complete control), Johnsongrass (johnsongrass): 5
Johnsongrass plant response rating (johnsongrass): 5
Plant response rating, Johnsongrass (johnsongrass; [3]): 95
Plant response rating, Johnsongrass (johnsongrass; [4]): 5
Plant response rating (scale of 0 to 100 where 0 is no effect and 100 is complete control), Morningglory (morningglory): 85
Morningglory plant response rating (morningglory): 85
Plant response rating, Morningglory (morningglory; [3]): 75
Plant response rating, Morningglory (morningglory; [4]): 75
Plant response rating, Ryegrass, Italian (ryegrass, Italian; [6]): 60
Plant response rating, Ryegrass, Italian (ryegrass, Italian; [7]): 10
Nutsedge, Yellow plant response rating (nutsedge, yellow [2]; [8]): 10
Nutsedge, Yellow plant response rating (nutsedge, yellow [2]; [9]): 60
Plant response rating, Nutsedge, Yellow (nutsedge, yellow [2]; [11]): 85
Nutsedge, Yellow plant response rating (nutsedge, yellow [2]; [12]): 98
Plant response rating, Barnyardgrass (barnyardgrass): 75
Plant response rating (scale of 0 to 100 where 0 is no effect and 100 is complete control), Foxtail, Giant (foxtail, giant): 5
Foxtail, Giant plant response rating (foxtail, giant): 30
Plant response rating, Foxtail, Giant (foxtail, giant; [3]): 75
Plant response rating, Foxtail, Giant (foxtail, giant; [4]): 60
Pigweed plant response rating (pigweed): 70
Plant response rating, Pigweed (pigweed; [3]): 85
Plant response rating, Pigweed (pigweed; [4]): 85
Blackgrass plant response rating (blackgrass; [8]): 85
Blackgrass plant response rating (blackgrass; [9]): 90
Plant response rating, Blackgrass (blackgrass; [11]): 90
Blackgrass plant response rating (blackgrass; [12]): 90
Wheat plant response rating (wheat; [8]): 80
Wheat plant response rating (wheat; [9]): 90
Plant response rating, Wheat (wheat; [11]): 90
Wheat plant response rating (wheat; [12]): 90
Plant response rating (scale of 0 to 100 where 0 is no effect and 100 is complete control), Oat, Wild (oat, wild): 10
Oat, Wild plant response rating (oat, wild): 35
Plant response rating, Oat, Wild (oat, wild; [3]): 80
Plant response rating, Oat, Wild (oat, wild; [4]): 35
Plant response rating, Rice (rice): 75
Lambsquarters plant response rating (lambsquarters; [8]): 100
Lambsquarters plant response rating (lambsquarters; [9]): 100
Plant response rating, Lambsquarters (lambsquarters; [11]): 100
Lambsquarters plant response rating (lambsquarters; [12]): 100
